Target: human α-thrombin (Homo sapiens, UniProt P00734)
Assay: Sub-library screen for active and permeable cyclic peptides (PAMPA plus thrombin inhibition)
Assay type: biochemical
Details: crude, slopes normalized to DMSO; for Residual thrombin activity: Top sample: PAMPA acceptor well after 14 h, 5 μM donor; for Residual thrombin activity: Equilibrated sample: donor sample diluted to theoretical equilibrium (1 μM in assay)
Summary of the method: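 Acylated cyclic peptides at 5 μM in PBS pH 7.4 with 5% DMSO were run through PAMPA for 14 h at room temperature. Acceptor wells and a diluted donor sample at 3 μM, representing maximum permeability, were preincubated 10 min with human α-thrombin (6 nM stock). Z-Gly-Gly-Arg-AMC (150 μM stock) fluorescence was then read for 30 min at 25 °C, and inhibition was taken against a no-peptide control.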

| SMILES | Residual thrombin activity: Top sample | Residual thrombin activity: Equilibrated sample |
| --- | --- | --- |
| N#Cc1ccc(C[C@@H]2NC(=O)[C@@H](NC(=O)c3ccc(Cl)s3)CCSCCS(=O)(=O)CCSCCNC(=O)C[C@H]3CCCN3C2=O)cc1 [C2-X35-L2] | 102.9 | 100.1 |
| Cc1cccc(C[C@@H]2NC(=O)[C@@H](NC(=O)c3ccc(Cl)s3)CSCC(=O)CSCCNC(=O)C[C@H]3CCCN3C2=O)c1 [C1-X37-L7] | 94.3 | 97.7 |
| O=C1C[C@H]2CCCN2C(=O)[C@H](Cc2ccc(Cl)cc2)NC(=O)[C@@H](NC(=O)c2ccc(Cl)s2)CCSC/C=C/CSCCN1 [C2-X34-L4] | 98.6 | 98.5 |
| N#Cc1ccc(C[C@@H]2NC(=O)[C@@H](NC(=O)c3ccc(Cl)s3)CSCc3cccc(c3)CSCCNC(=O)C[C@H]3CCCN3C2=O)cc1 [C1-X35-L5] | 102.4 | 97.2 |
| Cc1cccc(C[C@@H]2NC(=O)[C@@H](NC(=O)c3ccc(Cl)s3)CCSCc3cccc(n3)CSCCNC(=O)C[C@H]3CCCN3C2=O)c1 [C2-X37-L1] | 88.2 | 83.3 |
| O=C1C[C@H]2CCCN2C(=O)[C@H](Cc2ccc(C(F)(F)F)cc2)NC(=O)[C@@H](NC(=O)c2ccc(Cl)s2)CSC/C=C/CSCCN1 [C1-X36-L4] | 96.8 | 92.7 |
| O=C1C[C@H]2CCCN2C(=O)[C@H](Cc2ccc(Cl)cc2)NC(=O)[C@@H](NC(=O)c2ccc(Cl)s2)CSC/C=C/CSCCN1 [C1-X34-L4] | 98.7 | 91.7 |
| COc1ccc(C[C@@H]2NC(=O)[C@@H](NC(=O)c3ccc(Cl)s3)CSCc3ccccc3CSCCNC(=O)C[C@H]3CCCN3C2=O)cc1 [C1-X33-L6] | 89.9 | 95.4 |
| N#Cc1ccc(C[C@@H]2NC(=O)[C@@H](NC(=O)c3ccc(Cl)s3)CCSCC(=O)CSCCNC(=O)C[C@H]3CCCN3C2=O)cc1 [C2-X35-L7] | 103.0 | 104.7 |

Other lines, results leading:

| Residual thrombin activity: Top sample | Residual thrombin activity: Equilibrated sample | SMILES |
| --- | --- | --- |
| 86.8 | 50.1 | O=C1C[C@H]2CCCN2C(=O)[C@H](Cc2ccccc2)NC(=O)[C@@H](NC(=O)c2ccc(Cl)s2)CCCSCc2ccc(cc2)CSCCN1 [C3-X5-L3] |
| 106.1 | 102.1 | N#Cc1ccc(C[C@@H]2NC(=O)[C@@H](NC(=O)c3ccc(Cl)s3)CCCSCC(=O)CSCCNC(=O)C[C@H]3CCCN3C2=O)cc1 [C3-X35-L7] |
| 107.1 | 100.9 | N#Cc1ccc(C[C@@H]2NC(=O)[C@@H](NC(=O)c3ccc(Cl)s3)CCCSCc3cccc(c3)CSCCNC(=O)C[C@H]3CCCN3C2=O)cc1 [C3-X35-L5] |
| 101.2 | 96.4 | O=C1C[C@H]2CCCN2C(=O)[C@H](Cc2ccc(Cl)cc2)NC(=O)[C@@H](NC(=O)c2ccc(Cl)s2)CCCSCc2ccc(cc2)CSCCN1 [C3-X34-L3] |
| 95.1 | 92.6 | COc1ccc(C[C@@H]2NC(=O)[C@@H](NC(=O)c3ccc(Cl)s3)CCCSCc3ccccc3CSCCNC(=O)C[C@H]3CCCN3C2=O)cc1 [C3-X33-L6] |
| 94.7 | 78.6 | O=C1C[C@H]2CCCN2C(=O)[C@H](Cc2ccc(Cl)cc2)NC(=O)[C@@H](NC(=O)c2ccc(Cl)s2)CCCSCc2ccccc2CSCCN1 [C3-X34-L6] |
| 105.4 | 99.8 | O=C1C[C@H]2CCCN2C(=O)[C@H](Cc2ccc(C(F)(F)F)cc2)NC(=O)[C@@H](NC(=O)c2ccc(Cl)s2)CCCSCCS(=O)(=O)CCSCCN1 [C3-X36-L2] |
| 99.5 | 98.5 | CN1C(=O)[C@@H](NC(=O)c2ccc(Cl)s2)CCCSCc2cccc(n2)CSCCNC(=O)C[C@H]2CCCN2C(=O)[C@@H]1Cc1ccccc1 [C3-X32-L1] |
